The values that follow come from PMC3726599, “A Metabolically-Stabilized Phosphonate Analog of Lysophosphatidic Acid Attenuates Collagen-Induced Arthritis” (PLoS ONE, 2013).

Each structure is given as a SMILES string.

One assay addresses T1, recombinant ATX (Homo sapiens, UniProt Q13822).
T1 construct: purchased SinoBiological Inc (main data); R&D (additional Km values)
The experiment in a line: FS-3 ATX activity assay. Format: biochemical. The procedure:
Inhibition of ATX activity by BrP-LPA was determined using the cleavage of the ATX-specific fluorogenic substrate FS-3 (Echelon Biosciences, UT, USA). Assays were conducted in a final volume of 100 μl in the presence of 140 mM NaCl, 5 mM KCl, 1 mM MgCl2 and 50 mM Tris, pH 8.0 with the use of 1 µM FS-3, 2 nM ATX from Echelon and increasing concentrations of BrP-LPA. Reactions were brought up to 100 µl with ddH2O and were then incubated at 37°C in a Tecan Infinite 200 microplate reader (Tecan Trading AG, Switzerland) set to make fluorescence measurements every 1 min for a total period of 30 min. Autotaxin activity was quantified by measuring the rate of increase in fluorescence at 528 nm with excitation at 485 nm. At the end of the measurement, each data point was plotted on a graph of fluorescence versus time. A linear regression was fitted in the linear portion of the graph (3–20 min).
The biochemistry of lyso-PLD was assessed by following the kinetics data using a wide panel of different ATX substrates [FS-3, different LPC species (14:0, 16:0, 18:0, 18:1)], three different recombinant ATX proteins (R&D, Sino-Biological and Echelon) and three different ATX activity assays (FS-3, TOOS, Amplex Red). The ATX activity was measured at different substrate concentrations (typically from 1-1000 μM) in order to examine whether ATX follows Michaelis-Menten kinetics. […] Km and Vmax were evaluated from the rectangular hyperbola curve with the use of GraphPad software.
For in vitro inhibition measurements, BrP-LPA was dissolved in water as a stock solution (4 mM) and appropriate dilutions were made in water. […] The in vitro inhibition of ATX by BrP-LPA was evaluated with three different assays (FS-3, Amplex Red, and TOOS). […]
The inhibition model (competitive, noncompetitive, or mixed type inhibition) was evaluated by graphical analysis with Lineweaver–Burk double reciprocal plots (1/[velocity] versus 1/[substrate]) and Cornish-Bowden plot ([substrate]/[velocity] versus [Inhibitor]). […]

The subject of assay [1] is transformed NIH3T3 cells expressing ras and ATX. More on the design: method as in PMID 18454946. The following applies: cited from earlier work.

Regarding `CCCCCCCCCCCCCCCC(=O)OC[C@@H](O)CC(Br)P(=O)(O)O` (stereo partly drawn) [BrP-LPA, 1-bromo-3(S)-hydroxy-4-(palmitoyloxy)butyl-phosphonate], on recombinant ATX (FS-3 1 μΜ, BrP-LPA 10 μΜ), the “% Inhibition at 10 μΜ” value stood at 95%. Further, on recombinant ATX (FS-3 assay, [S] 1 μΜ FS-3, Echelon ATX 2 nM, mean±std), the IC50 was determined as 400 ± 30 nM. The Ki at recombinant ATX (FS-3 substrate, Cheng-Prusoff from IC50) was 300 ± 100 nM. Moreover, the decrease of chemotaxis in assay [1] is listed as 23%.

Usually % Inhibition stands for the change of the read-out against control, counted positive when it falls. Usually IC50 stands for the midpoint of a concentration-inhibition curve. A word on the Ki: it is a measure of affinity in units of concentration, obtained from inhibition or displacement.
